Experimental data: patent US20230218681A1, “BREVUNDIMONAS SP FOR USE IN DISEASE PREVENTION AND TREATMENT” (Zivo Bioscience, Inc., priority 2021, published 2023)

Legend:
[1] = test system: Eimeria acervulina, Eimeria maxima, and Eimeria tenella; assay: First study: floor-pen broilers challenged with Eimeria on Day 7, test material in feed, Days 0-28; assay type: in vivo, broiler chicks
Procedure: (§1) Chicks were obtained within twelve hours of hatching from fecal contaminated flocks at a commercial hatchery on Day 0 (hatch and placement day). Three-hundred mixed-sex broiler chicks (50:50 sex ratio) were randomly assigned on Day 0 by individual weights to each of several test group pens, each with replicates. Only antibiotic-free birds were sourced, and no coccidiosis vaccine was administered at the hatchery or at any time during the study. Chicks were evaluated upon receipt for signs of disease or other complications that could affect study outcome. Weak birds were humanely sacrificed. Birds were not replaced during the study.
(§2) Following examination, chicks were weighed and allocated to pens for the various treatment groups using a randomized block design. Weight distribution across the treatment groups was assessed prior to feeding by comparing the individual test groups' standard deviations of the mean against that of the control group. Weight distribution across the groups was considered acceptable for this study when differences between control and test groups were within one standard deviation.
(§3) All birds received nutritionally adequate diets as pellets (crumbled pellets for Days 1-14). Birds were fed their respective treatment diets ad libitum from day of hatch to 28 days of age. (The typical average market age is 42 days.) Birds were raised on built-up litter to further mimic stress conditions typically experienced in poultry production.
(§4) All diets were offered ad libitum without restrictions to full-fed consumption, except for an 8-hour fasting period prior to cocci-challenge on Day 7 when all birds assigned to challenge test groups received oocyst-inoculated feed containing a mixture of Eimeria acervulina, Eimeria maxima, and Eimeria tenella. Dietary requirements for protein, lysine, methionine, methionine+cystine, arginine, threonine, tryptophan, total phosphorus, available phosphorus, total calcium, dietary sodium, and dietary choline were met by adjusting the concentrations of corn and soybean meal ingredients, as well as other minor ingredients commonly used in poultry production.
(§5) Pens were monitored for environmental conditions, including temperature, lighting, water, feed, litter condition, and unanticipated house conditions/events. Pens were checked daily for mortality. Examinations were performed on all broilers found dead or moribund. Mortalities were recorded (date and weight) and examined (both internal and external body mass).
Cocci-Challenge—On Day 7, all birds assigned to challenged test groups received oocyst-inoculated feed containing a mixture of Eimeria acervulina, Eimeria maxima, and Eimeria tenella. Adequate feed was precisely weighed and provided to birds to consume at the rate of 100% fill-capacity on average. Prior to the challenge, all birds were starved for eight hours. Inoculated feed was provided to the birds. Following a specific time, all remaining inoculated feed was removed and weighed to assure equal consumption per pen and per bird. The quantity of feed (both placed and withdrawn) was recorded on each pen's feed record.
Differences between groups were evaluated at P<0.05, employing Treatment x Replicate RCB (Randomized Complete Block) design. Particularly and as noted, “Significance (P<0.05)” refers to means for groups not sharing common letter designations in the figures which indicates significant difference (P<0.05) between said groups, as determined by Duncan's New Multiple Range Test (MRT 1955).

[2] = test system: Eimeria acervulina, Eimeria maxima, and Eimeria tenella; assay: Second study: dried bacterial biomass feed ingredients in cocci-challenged floor-pen broilers on built-up litter, Days 1-28; assay type: in vivo, broiler chicks
Excerpt: A second study was undertaken to determine the response and efficacy of a dried bacterial biomass feed ingredient incorporated at a specific amount into a commercial-type corn-soybean diet and fed to floor-pen raised broilers. The second study was undertaken over a 28-day period, from Day 1 to Day 28.
The animals were raised under a disease challenge environment (cocci-challenge+built-up litter). For the study and as set forth in FIG. 15, six groups were established, including a first group that received no feed additive ingredient, a second group treated with the anti-coccidia drug Coban® (Elanco), a third group fed a Variovorax-based biomass, a fourth group fed a Brevundimonas-based biomass, a fifth group fed a Sphingomonas-based biomass, and a sixth group fed a 50:50 mixture of a Variovorax and Brevundimonas-based biomass. The feed included corn and soybean meal rations with normal nutritional formulations. No coccidiostat (except for treatment with Coban® provided to the second group) or ABF (antibiotic free products) were administered during the study. No coccidiosis vaccine was administered at the hatchery or during the course of the study.
as §1, with “A total of 1,800 mixed sex broiler chicks were obtained” for “Chicks were obtained”, “placement day). A number of mixed-sex broiler” for “placement day). Three-hundred mixed-sex broiler”, “weights to one of several” for “weights to each of several”
as §2, §3
as §4, with “assigned to the challenge test” for “assigned to challenge test”
as §5
Cocci-Challenge—On Day 7, all birds assigned to the challenge test groups received oocyst-inoculated feed containing a mixture of Eimeria acervulina, Eimeria maxima, and Eimeria tenella. Adequate feed was precisely weighed and provided to birds to consume at the rate of 100% fill-capacity on average. […]

[3] = cocci challenge Day 7, Days 1-28
[4] = mortality-corrected, cocci challenge Day 7, Days 1-28

## CC[C@@]1([C@@H]2O[C@@H]([C@H]3O[C@@](O)(CO)[C@H](C)C[C@@H]3C)C[C@@H]2C)CC[C@H]([C@]2(C)CC[C@]3(C[C@H](O)[C@@H](C)[C@@H]([C@@H](C)[C@@H](OC)[C@H](C)C(=O)O)O3)O2)O1 [Coban, Monensin, USP]
[1]; Day 28
  Lesion Score Ceca Day 28: 0.583
  Lesion Score Ileum Day 28: 0.433
[1]; Johnson and Reid method, Day 28
  Lesion Score Duodenum Day 28: 0.525
[1]; cocci challenge Day 7, Day 28
  Avg Pen Body Weight (g) Day 28: 1430.88 g
  Feed Intake (g/bird/day) Day 28: 89.499 g/bird/day
[1]; [3]
  % Mortality Days 1-28: 1.852%
[1]; [4]
  Feed Conversion Ratio Corrected Days 1-28: 1.527
[2]; Day 28
  Coccidia Incidence Score Small Intestine Day 28: 0.325
  Lesion Score Duodenum Day 28: 0.317
[2]; cocci challenge Day 7, Day 28
  Avg Pen Body Weight (g) Day 28: 1443.182 g
  Feed Intake (g/bird/day) Day 28: 75.493 g/bird/day
[2]; [3]
  % Mortality Days 1-28: 3.750%
[2]; [4]
  Feed Conversion Ratio Corrected Days 1-28: 1.403
